A word on the EC50: it is the concentration that produces a half-maximal response. Higher therefore signals a need for much substance.

In the assay the target is Ras-related protein Rab-7a (Canis lupus familiaris, UniProt P18067). The assay can be described thus: extra analogs blocking nucleotide binding to Rab7 – biochemical, additional analogs, wildtype, multiplex bead flow cytometry, SAR follow-up (AID 2036). On the technique in general: In flow cytometry, cells or beads pass a laser one at a time.
Chain of Ras-related protein Rab-7a (P18067 whole entry): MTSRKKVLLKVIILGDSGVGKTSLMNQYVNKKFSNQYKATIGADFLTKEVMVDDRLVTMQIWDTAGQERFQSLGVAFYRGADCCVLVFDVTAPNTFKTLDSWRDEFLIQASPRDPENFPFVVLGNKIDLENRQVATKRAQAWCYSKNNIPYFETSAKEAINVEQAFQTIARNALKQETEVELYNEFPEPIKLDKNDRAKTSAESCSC
Setting [1] is: inactive by the depositor's call.

On to `O=C1Nc2c(Cl)cccc2C1=C1Nc2ccccc2C1=O`, for which the EC50 is 0.024 µM.

Regarding `O=C1Nc2c(Br)cccc2C1=C1Nc2ccccc2C1=O`, a half-maximal response (EC50) required 30 µM.

Molecule `O=C1Nc2c(F)cccc2C1=C1Nc2ccccc2C1=O` returned an EC50 of 23.8 µM.

In turn, `O=C1NC(=O)/C(=C2/C(=O)Nc3ccccc32)N1` returned a 50% effective concentration (EC50) of 30 µM.

The molecule `O=C1Nc2cccc(Br)c2/C1=C1/Cc2ccccc2C1=O` gave a concentration giving a half-maximal response (EC50) under setting [1] of 30 µM. That is a double-digit micromolar value.

`O=C1Nc2ccc(Br)cc2C1=C1Nc2ccccc2C1=O` showed an EC50 of 30 µM. This lies in the double-digit micromolar range.

On to `COc1ccc(S(=O)(=O)n2c(N)c(C#N)c(-c3ccccc3)c2C(=O)c2ccc(Br)cc2)cc1`, for which the response under setting [1] was half-maximal at 30 µM (EC50). This counts as double-digit micromolar.

For `O=[N+]([O-])c1ccc(C#Cc2ccccc2)cc1`, under setting [1], the half-maximal effective concentration (EC50) is 30 µM.

With `O=C(C#Cc1ccccc1)c1ccc(OC(F)(F)F)cc1`, the EC50 under setting [1] came to 30 µM.

As to `COc1ccc(C(=O)C#Cc2ccccc2)cc1` [1-(4-methoxyphenyl)-3-phenyl-2-propyn-1-one], a half-maximal response under setting [1] (EC50) required 30 µM.

In the case of `O=C(C#Cc1ccccc1)c1ccc([N+](=O)[O-])cc1` [1-(4-nitrophenyl)-3-phenyl-2-propyn-1-one], the midpoint of the response under setting [1], the EC50, lay at 30 µM. That is a double-digit micromolar value.

For `CC(C(=O)O)c1cccc(C(=O)c2ccccc2)c1` (stereo not given) [2-(3-benzoylphenyl)propanoic acid], under setting [1], the response was half-maximal at 30 µM (EC50).

As to `COc1ccc2cc(CC(=O)O)ccc2c1` [2-(6-methoxynaphthalen-2-yl)ethanoic acid], under setting [1], it took 30 µM to reach a half-maximal effect (EC50). In other words, the double-digit micromolar range.

As to `CC(=O)Oc1ccccc1C(=O)O` [2-(acetyloxy)benzoic acid], under setting [1], the concentration giving a half-maximal response (EC50) worked out at 30 µM.

Regarding `O=C1Nc2ccccc2/C1=C1/Nc2ccccc2C1=O` [2-[(3Z)-2-oxo-2,3-dihydro-1H-indol-3-ylidene]-2,3-dihydro-1H-indol-3-one], the EC50 came to 30 µM. In other words, the double-digit micromolar range.

For the molecule `CCCCS(=O)(=O)n1c(N)c(C#N)c(-c2cc(OC)c(OC)c(OC)c2)c1C(=O)c1ccccc1` [2-amino-5-benzoyl-1-butylsulfonyl-4-(3,4,5-trimethoxyphenyl)-3-pyrrolecarbonitrile], under setting [1], it took 30 µM to reach a half-maximal effect (EC50).

Turning to `COc1ccc(S(=O)(=O)n2c(N)c(C#N)c(-c3cncc(Br)c3)c2C(=O)c2ccccc2)cc1` [2-amino-5-benzoyl-4-(5-bromo-3-pyridinyl)-1-(4-methoxyphenyl)sulfonyl-3-pyrrolecarbonitrile], it took 8.24 µM to reach a half-maximal effect under setting [1] (EC50).

Regarding `COc1ccc(-c2c(C#N)c(N)n(S(C)(=O)=O)c2C(=O)c2ccccc2)cc1Br` [2-azanyl-4-(3-bromanyl-4-methoxy-phenyl)-1-methylsulfonyl-5-(phenylcarbonyl)pyrrole-3-carbonitrile], the EC50 under setting [1] is 30 µM. This EC50 is about 3.6-fold higher than that of the molecule before.

In turn, `COc1cc(-c2c(C#N)c(N)n(S(=O)(=O)c3c(C(C)C)cc(C(C)C)cc3C(C)C)c2C(=O)c2ccccc2)cc(OC)c1OC` [2-azanyl-5-(phenylcarbonyl)-4-(3,4,5-trimethoxyphenyl)-1-[2,4,6-tri(propan-2-yl)phenyl]sulfonyl-pyrrole-3-carbonitrile] registered a half-maximal effective concentration (EC50) under setting [1] of 33.2 µM.

`O=C1N=c2ccccc2=C1c1[nH]c2ccccc2c1NO` [3-[3-(hydroxyamino)-1H-indol-2-yl]-2-indolone] gave a concentration for a half-maximal effect (EC50) of 30 µM.

Under setting [1], `O=C(C#Cc1ccccc1)c1cccnc1` [3-phenyl-1-pyridin-3-ylprop-2-yn-1-one] yielded a 50% effective concentration (EC50) of 30 µM.

Molecule `COC(=O)c1ccc(C(=O)C#Cc2ccccc2)cc1` [4-(1-oxo-3-phenylprop-2-ynyl)benzoic acid methyl ester] showed a half-maximal effective concentration (EC50) under setting [1] of 30 µM.

For `N#Cc1ccc(C(=O)C#Cc2ccccc2)cc1` [4-(3-phenylprop-2-ynoyl)benzenecarbonitrile], the 50% effective concentration (EC50) under setting [1] turned out to be 30 µM.

In turn, `O=C1N=c2ccc(Br)cc2=C1c1[nH]c2ccccc2c1NO` [5-bromanyl-3-[3-(oxidanylamino)-1H-indol-2-yl]indol-2-one] displayed a 50% effective concentration (EC50) of 30 µM.

`O=C1N=c2c(Br)cccc2=C1c1[nH]c2ccccc2c1NO` [7-bromanyl-3-[3-(oxidanylamino)-1H-indol-2-yl]indol-2-one]: the half-maximal effective concentration (EC50) is 30 µM.

`O=C1N=c2c(Cl)cccc2=C1c1[nH]c2ccccc2c1NO` [7-chloro-3-[3-(hydroxyamino)-1H-indol-2-yl]-2-indolone] returned a 50% effective concentration (EC50) of 30 µM. That is a double-digit micromolar value.

As to `O=C1N=c2c(F)cccc2=C1c1[nH]c2ccccc2c1NO` [7-fluoro-3-[3-(hydroxyamino)-1H-indol-2-yl]-2-indolone], the EC50 worked out at 30 µM. That is a double-digit micromolar value.

`O=C1Nc2c(Br)cccc2/C1=C1/Cc2ccccc2C1=O` [(3E)-7-bromo-3-(3-oxo-1H-inden-2-ylidene)-1H-indol-2-one] yielded an EC50 under setting [1] of 30 µM.

`O=C1NC(=S)N/C1=C1\C(=O)Nc2ccccc21` [(3Z)-3-(5-oxo-2-sulfanylideneimidazolidin-4-ylidene)-1H-indol-2-one] registered an EC50 of 13.4 µM.

Regarding `CC(C)Cc1ccc([C@H](C)C(=O)O)cc1` [(S)-2-(4-Isobutyl-phenyl)-propionic acid], the EC50 under setting [1] was determined as 4.78 µM.

`O=C1Nc2ccccc2/C1=C1/Cc2ccccc2C1=O` [UNM-0000305763]: the EC50 under setting [1] stood at 30 µM. Compared with the last molecule, the EC50 is about 6.3-fold higher.

In turn, `N#Cc1c(-c2ccc(Cl)cc2)c(C(=O)c2ccccc2)n(S(=O)(=O)c2ccc([N+](=O)[O-])cc2)c1N` [UNM-0000305780] had an EC50 under setting [1] of 30 µM.

Turning to `COc1ccc(S(=O)(=O)n2c(N)c(C#N)c(-c3cc(Br)c(OC)c(OC)c3)c2C(=O)c2ccccc2)cc1` [UNM-0000305782], under setting [1], a half-maximal effect (EC50) was put at 30 µM.

For `O=C(C#Cc1ccccc1)c1ccccc1[N+](=O)[O-]` [UNM-0000306038], the 50% effective concentration (EC50) under setting [1] is 30 µM. In other words, the double-digit micromolar range.

Turning to `O=C(C#Cc1ccccc1)c1ccccc1` [UNM-0000306039], the EC50 under setting [1] was 30 µM. That is a double-digit micromolar value.

Take `O=C(C#Cc1ccccc1)c1ccc(Cl)cc1` [UNM-0000306055]: the EC50 under setting [1] is 30 µM. That is a double-digit micromolar value.

Regarding `O=C(C#Cc1ccccc1)c1ccc(F)cc1` [UNM-0000306059], the concentration for a half-maximal effect (EC50) under setting [1] was determined as 30 µM.

`CC1=C(CC(=O)O)c2cc(F)ccc2/C1=C/c1ccc([S+](C)[O-])cc1` (stereo not given) [UNM-0000306136] gave a concentration giving a half-maximal response (EC50) under setting [1] of 30 µM.

`C[C@@H](C(=O)O)c1cccc(Oc2ccccc2)c1` [calcium;2-(3-phenoxyphenyl)propanoic acid;hydrate] gave an EC50 of 30 µM. This lies in the double-digit micromolar range.

Take `CSc1ccc(/C=C2/C(C)=C(CC(=O)O)c3cc(F)ccc32)cc1` [{6-Fluoro-2-methyl-3-[1-(4-methylsulfanyl-phenyl)-meth-(E)-ylidene]-3H-inden-1-yl}-acetic acid]: under setting [1], a half-maximal response (EC50) required 41.2 µM.

Values taken from BindingDB's records for doi:10.7270/Q2X34VWJ (Nmmlsc, 2009).
